# From patent US11542240B2, “STK19 inhibitors for treatment of cancer” (TRUSTEES OF BOSTON UNIVERSITY, priority 2018, dated 2023)
# Columns and labels:
# Experiment in all cases: biochemical
# Type in all cases: binding
# [1] = biological target: panel of 468 diverse kinases (Homo sapiens, UniProt Q04771); settings: ACVR1; 1000 nM; read-out: Percent Control
# [2] = biological target: panel of 468 diverse kinases (Homo sapiens, UniProt Q9NRP7); settings: STK36; 1000 nM; read-out: Percent Control
# [3] = biological target: panel of 468 diverse kinases (Homo sapiens, UniProt P00533, G719S); settings: EGFR(G719S); 1000 nM; read-out: Percent Control
# [4] = biological target: panel of 468 diverse kinases (Homo sapiens, UniProt O60331); settings: PIP5K1C; 1000 nM; read-out: Percent Control
# [5] = biological target: panel of 468 diverse kinases (Homo sapiens, UniProt Q6P3R8); settings: NEK5; 1000 nM; read-out: Percent Control
# [6] = biological target: panel of 468 diverse kinases (Homo sapiens, UniProt P49761); settings: CLK3; 1000 nM; read-out: Percent Control
# [7] = biological target: panel of 468 diverse kinases (Homo sapiens, UniProt P08069); settings: IGF1R; 1000 nM; read-out: Percent Control
# [8] = biological target: panel of 468 diverse kinases (Homo sapiens, UniProt Q16512); settings: PKN1; 1000 nM; read-out: Percent Control
# [9] = biological target: panel of 468 diverse kinases (Homo sapiens, UniProt Q8NE63); settings: HIPK4; 1000 nM; read-out: Percent Control
# [10] = biological target: panel of 468 diverse kinases (Homo sapiens, UniProt O00238); settings: BMPR1B; 1000 nM; read-out: Percent Control
# [11] = biological target: panel of 468 diverse kinases (Homo sapiens, UniProt Q9Y4K4); settings: MAP4K5; 1000 nM; read-out: Percent Control
# [12] = biological target: panel of 468 diverse kinases (Homo sapiens, UniProt Q15208); settings: NDR1; 1000 nM; read-out: Percent Control
# [13] = biological target: panel of 468 diverse kinases (Homo sapiens, UniProt P42336, E545K); settings: PIK3CA(E545K); 1000 nM; read-out: Percent Control
# [14] = biological target: panel of 468 diverse kinases (Homo sapiens, UniProt Q9UF33); settings: EPHA6; 1000 nM; read-out: Percent Control
# [15] = biological target: panel of 468 diverse kinases (Homo sapiens, UniProt Q13464); settings: ROCK1; 1000 nM; read-out: Percent Control
# [16] = biological target: panel of 468 diverse kinases (Homo sapiens, UniProt Q9BRS2); settings: RIOK1; 1000 nM; read-out: Percent Control
# [17] = biological target: panel of 468 diverse kinases (Homo sapiens, UniProt Q8TD19); settings: NEK9; 1000 nM; read-out: Percent Control
# [18] = biological target: panel of 468 diverse kinases (Homo sapiens, UniProt Q9Y616); settings: IRAK3; 1000 nM; read-out: Percent Control
# [19] = biological target: panel of 468 diverse kinases (Homo sapiens, UniProt Q13131); settings: AMPK-alpha1; 1000 nM; read-out: Percent Control
# [20] = biological target: panel of 468 diverse kinases (Homo sapiens, UniProt Q9UBE8); settings: NLK; 1000 nM; read-out: Percent Control
# [21] = biological target: panel of 468 diverse kinases (Homo sapiens, UniProt P36894); settings: BMPRIV; 1000 nM; read-out: Percent Control
# [22] = biological target: panel of 468 diverse kinases (Homo sapiens, UniProt O43318); settings: TAK1; 1000 nM; read-out: Percent Control
# [23] = biological target: panel of 468 diverse kinases (Homo sapiens, UniProt Q9H1R3); settings: MYLK2; 1000 nM; read-out: Percent Control
# [24] = biological target: panel of 468 diverse kinases (Homo sapiens, UniProt Q13233); settings: MAP3K1; 1000 nM; read-out: Percent Control
# [25] = biological target: panel of 468 diverse kinases (Homo sapiens, UniProt P27037); settings: ACVR2A; 1000 nM; read-out: Percent Control
# [26] = biological target: panel of 468 diverse kinases (Homo sapiens, UniProt Q13873); settings: BMPR2; 1000 nM; read-out: Percent Control
# [27] = biological target: panel of 468 diverse kinases (Homo sapiens, UniProt O15075); settings: DCAMKL1; 1000 nM; read-out: Percent Control
# [28] = biological target: panel of 468 diverse kinases (Homo sapiens, UniProt P46734); settings: MEK3; 1000 nM; read-out: Percent Control
# [29] = biological target: panel of 468 diverse kinases (Homo sapiens, UniProt Q09013); settings: DMPK; 1000 nM; read-out: Percent Control
# [30] = biological target: panel of 468 diverse kinases (Homo sapiens, UniProt P50750); settings: CDK9; 1000 nM; read-out: Percent Control
# [31] = biological target: panel of 468 diverse kinases (Homo sapiens, UniProt P20794); settings: MAK; 1000 nM; read-out: Percent Control
# Sequence of panel of 468 diverse kinases (Homo sapiens, UniProt Q9H1R3) (Q9H1R3 2-596 limits assumed): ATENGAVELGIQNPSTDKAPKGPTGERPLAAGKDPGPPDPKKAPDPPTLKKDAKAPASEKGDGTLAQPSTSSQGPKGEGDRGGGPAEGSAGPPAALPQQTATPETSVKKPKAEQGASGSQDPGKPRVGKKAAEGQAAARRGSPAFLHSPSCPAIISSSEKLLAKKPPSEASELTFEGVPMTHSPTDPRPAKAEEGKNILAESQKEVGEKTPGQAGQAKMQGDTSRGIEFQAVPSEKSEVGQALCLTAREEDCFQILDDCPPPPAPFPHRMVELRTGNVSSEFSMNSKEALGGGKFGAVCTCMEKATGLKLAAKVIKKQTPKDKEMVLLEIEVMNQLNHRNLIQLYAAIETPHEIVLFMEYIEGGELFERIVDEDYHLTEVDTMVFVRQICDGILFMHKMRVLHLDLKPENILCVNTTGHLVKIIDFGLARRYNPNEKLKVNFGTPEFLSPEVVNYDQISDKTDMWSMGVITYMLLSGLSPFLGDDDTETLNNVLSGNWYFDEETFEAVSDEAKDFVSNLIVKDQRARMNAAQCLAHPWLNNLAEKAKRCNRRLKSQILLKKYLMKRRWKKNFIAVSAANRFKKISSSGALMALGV
# Sequence of panel of 468 diverse kinases (Homo sapiens, UniProt Q13233) (Q13233 2-1512 limits assumed): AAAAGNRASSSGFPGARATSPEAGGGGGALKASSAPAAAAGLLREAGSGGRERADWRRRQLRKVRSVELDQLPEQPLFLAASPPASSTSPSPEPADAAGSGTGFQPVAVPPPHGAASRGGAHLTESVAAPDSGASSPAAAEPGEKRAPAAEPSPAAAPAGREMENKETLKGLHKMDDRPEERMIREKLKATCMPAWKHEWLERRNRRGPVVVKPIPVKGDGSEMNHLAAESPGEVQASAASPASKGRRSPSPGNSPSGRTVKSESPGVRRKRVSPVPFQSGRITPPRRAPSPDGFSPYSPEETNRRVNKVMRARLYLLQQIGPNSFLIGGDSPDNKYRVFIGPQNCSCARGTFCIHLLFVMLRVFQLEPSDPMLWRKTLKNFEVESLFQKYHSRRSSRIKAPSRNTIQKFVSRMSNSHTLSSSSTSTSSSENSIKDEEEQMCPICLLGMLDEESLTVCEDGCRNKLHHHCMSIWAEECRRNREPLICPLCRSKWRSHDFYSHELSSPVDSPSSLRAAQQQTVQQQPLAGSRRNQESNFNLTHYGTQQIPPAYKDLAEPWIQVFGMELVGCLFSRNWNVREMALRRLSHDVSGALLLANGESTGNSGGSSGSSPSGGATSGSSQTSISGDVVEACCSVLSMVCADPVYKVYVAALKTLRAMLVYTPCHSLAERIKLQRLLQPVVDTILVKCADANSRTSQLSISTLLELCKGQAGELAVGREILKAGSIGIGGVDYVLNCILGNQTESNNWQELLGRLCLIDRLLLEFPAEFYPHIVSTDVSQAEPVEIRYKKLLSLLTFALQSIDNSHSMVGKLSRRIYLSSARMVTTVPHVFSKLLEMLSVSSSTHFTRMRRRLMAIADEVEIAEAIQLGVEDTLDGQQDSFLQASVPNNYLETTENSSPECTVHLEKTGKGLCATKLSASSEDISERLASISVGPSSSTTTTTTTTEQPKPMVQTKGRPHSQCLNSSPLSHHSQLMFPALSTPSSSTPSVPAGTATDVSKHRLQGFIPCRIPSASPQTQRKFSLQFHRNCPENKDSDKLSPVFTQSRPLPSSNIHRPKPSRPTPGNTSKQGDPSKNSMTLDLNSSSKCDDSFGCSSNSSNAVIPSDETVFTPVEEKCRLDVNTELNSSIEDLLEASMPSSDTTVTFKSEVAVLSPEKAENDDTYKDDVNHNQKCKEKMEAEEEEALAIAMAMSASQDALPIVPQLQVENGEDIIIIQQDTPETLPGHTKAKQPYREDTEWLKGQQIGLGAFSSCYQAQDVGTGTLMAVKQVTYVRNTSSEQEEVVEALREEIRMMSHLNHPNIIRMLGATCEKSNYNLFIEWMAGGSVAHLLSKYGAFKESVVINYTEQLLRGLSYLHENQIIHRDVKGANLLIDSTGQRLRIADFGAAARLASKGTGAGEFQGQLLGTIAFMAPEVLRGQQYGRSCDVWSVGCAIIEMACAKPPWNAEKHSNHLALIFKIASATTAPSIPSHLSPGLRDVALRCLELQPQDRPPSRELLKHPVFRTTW
# Sequence of panel of 468 diverse kinases (Homo sapiens, UniProt Q8TD19) (Q8TD19 2-979 limits assumed): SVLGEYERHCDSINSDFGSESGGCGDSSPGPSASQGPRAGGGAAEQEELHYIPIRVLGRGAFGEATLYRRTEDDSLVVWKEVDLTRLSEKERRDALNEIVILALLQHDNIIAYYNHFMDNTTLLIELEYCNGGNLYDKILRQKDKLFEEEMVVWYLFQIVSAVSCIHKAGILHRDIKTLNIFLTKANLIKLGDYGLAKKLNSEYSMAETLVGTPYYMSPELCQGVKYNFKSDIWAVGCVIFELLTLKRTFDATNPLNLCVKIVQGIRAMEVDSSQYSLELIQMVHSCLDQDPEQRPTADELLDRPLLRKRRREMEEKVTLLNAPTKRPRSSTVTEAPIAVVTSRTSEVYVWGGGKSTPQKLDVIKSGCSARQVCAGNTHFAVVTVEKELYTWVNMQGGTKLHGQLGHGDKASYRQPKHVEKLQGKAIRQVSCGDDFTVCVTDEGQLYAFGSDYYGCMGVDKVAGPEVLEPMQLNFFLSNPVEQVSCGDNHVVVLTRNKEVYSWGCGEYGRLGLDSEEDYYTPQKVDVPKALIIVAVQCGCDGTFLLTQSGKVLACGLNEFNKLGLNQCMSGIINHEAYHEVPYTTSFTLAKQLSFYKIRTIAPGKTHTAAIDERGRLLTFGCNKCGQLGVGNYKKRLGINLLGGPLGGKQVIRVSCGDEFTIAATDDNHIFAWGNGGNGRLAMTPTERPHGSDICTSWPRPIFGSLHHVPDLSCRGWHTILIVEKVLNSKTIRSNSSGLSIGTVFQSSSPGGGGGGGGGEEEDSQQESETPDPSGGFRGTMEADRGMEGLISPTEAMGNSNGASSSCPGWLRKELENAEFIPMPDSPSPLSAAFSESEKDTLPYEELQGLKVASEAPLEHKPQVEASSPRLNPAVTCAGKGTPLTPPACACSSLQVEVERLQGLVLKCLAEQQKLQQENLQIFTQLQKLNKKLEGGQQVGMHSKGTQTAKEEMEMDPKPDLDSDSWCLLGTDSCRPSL
# Sequence of panel of 468 diverse kinases (Homo sapiens, UniProt Q13873) (Q13873 27-1038 limits assumed): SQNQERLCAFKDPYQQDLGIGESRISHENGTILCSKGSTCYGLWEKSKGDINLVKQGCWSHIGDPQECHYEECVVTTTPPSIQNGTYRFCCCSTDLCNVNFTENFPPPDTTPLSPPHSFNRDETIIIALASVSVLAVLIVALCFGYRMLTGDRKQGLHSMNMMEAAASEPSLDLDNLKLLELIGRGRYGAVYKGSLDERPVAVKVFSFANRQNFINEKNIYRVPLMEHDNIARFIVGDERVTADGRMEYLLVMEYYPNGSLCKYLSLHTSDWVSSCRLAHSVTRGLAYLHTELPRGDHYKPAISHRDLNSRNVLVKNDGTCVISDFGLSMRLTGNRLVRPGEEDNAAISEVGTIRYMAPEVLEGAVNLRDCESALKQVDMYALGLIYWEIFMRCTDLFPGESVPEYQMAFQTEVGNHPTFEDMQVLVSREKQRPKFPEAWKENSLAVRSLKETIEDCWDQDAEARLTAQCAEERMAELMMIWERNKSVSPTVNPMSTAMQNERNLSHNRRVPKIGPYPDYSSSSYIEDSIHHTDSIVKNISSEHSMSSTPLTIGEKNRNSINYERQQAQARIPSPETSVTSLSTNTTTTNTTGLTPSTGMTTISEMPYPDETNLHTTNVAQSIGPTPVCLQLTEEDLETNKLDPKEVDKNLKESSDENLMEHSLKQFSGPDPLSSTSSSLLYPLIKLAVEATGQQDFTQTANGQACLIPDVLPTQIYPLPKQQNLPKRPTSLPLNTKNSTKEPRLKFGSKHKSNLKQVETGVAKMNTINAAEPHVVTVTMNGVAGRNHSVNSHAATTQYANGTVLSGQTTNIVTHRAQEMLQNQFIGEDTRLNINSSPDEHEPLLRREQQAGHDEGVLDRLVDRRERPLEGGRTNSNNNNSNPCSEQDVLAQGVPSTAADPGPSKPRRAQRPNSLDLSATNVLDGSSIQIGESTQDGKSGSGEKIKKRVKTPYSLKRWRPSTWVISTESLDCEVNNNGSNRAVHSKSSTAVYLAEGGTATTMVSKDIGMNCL
# Sequence of panel of 468 diverse kinases (Homo sapiens, UniProt Q16512) (Q16512 2-942 limits assumed): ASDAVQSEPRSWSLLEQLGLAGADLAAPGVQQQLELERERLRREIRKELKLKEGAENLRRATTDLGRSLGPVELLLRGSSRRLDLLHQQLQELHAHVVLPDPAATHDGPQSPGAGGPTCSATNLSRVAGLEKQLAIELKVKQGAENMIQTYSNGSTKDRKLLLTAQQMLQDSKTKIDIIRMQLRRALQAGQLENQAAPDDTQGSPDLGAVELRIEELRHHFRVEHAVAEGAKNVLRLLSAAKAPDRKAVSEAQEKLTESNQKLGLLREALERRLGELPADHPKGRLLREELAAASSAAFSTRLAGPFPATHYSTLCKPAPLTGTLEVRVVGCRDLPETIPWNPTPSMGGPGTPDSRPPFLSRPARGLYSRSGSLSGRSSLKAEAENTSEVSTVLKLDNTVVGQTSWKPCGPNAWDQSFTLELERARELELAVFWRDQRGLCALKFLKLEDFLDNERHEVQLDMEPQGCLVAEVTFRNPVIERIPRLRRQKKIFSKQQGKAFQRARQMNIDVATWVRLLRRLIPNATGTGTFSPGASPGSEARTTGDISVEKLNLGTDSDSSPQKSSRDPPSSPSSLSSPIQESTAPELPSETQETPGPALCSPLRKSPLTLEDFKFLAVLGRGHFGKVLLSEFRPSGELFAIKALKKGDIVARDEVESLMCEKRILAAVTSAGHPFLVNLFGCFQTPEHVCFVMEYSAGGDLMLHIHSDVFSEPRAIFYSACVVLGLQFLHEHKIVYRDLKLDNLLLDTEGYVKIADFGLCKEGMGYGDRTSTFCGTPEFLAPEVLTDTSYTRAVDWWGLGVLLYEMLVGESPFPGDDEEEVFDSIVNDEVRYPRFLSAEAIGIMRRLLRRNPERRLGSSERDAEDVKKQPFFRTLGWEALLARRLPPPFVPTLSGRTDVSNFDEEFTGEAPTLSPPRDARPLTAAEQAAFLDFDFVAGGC
smiles,measurement,setting,value
COc1cc2nc(NC3CC3)nc(NC3CCN(C(C)C)CC3)c2cc1OC [Formula IV],remaining activity at 1 µM,[1],100%
same,remaining activity at 1 µM,[2],77%
same,remaining activity at 1 µM,[3],91%
same,remaining activity at 1 µM,[4],100%
same,remaining activity at 1 µM,[5],90%
same,remaining activity at 1 µM,[6],91%
same,remaining activity at 1 µM,[7],97%
same,remaining activity at 1 µM,[8],99%
same,remaining activity at 1 µM,[9],91%
same,remaining activity at 1 µM,[10],55%
same,remaining activity at 1 µM,[11],100%
same,remaining activity at 1 µM,[12],81%
same,remaining activity at 1 µM,[13],48%
same,remaining activity at 1 µM,[14],100%
same,remaining activity at 1 µM,[15],45%
same,remaining activity at 1 µM,[16],100%
same,remaining activity at 1 µM,[17],83%
same,remaining activity at 1 µM,[18],99%
same,remaining activity at 1 µM,[19],92%
same,remaining activity at 1 µM,[20],100%
same,remaining activity at 1 µM,[21],100%
same,remaining activity at 1 µM,[22],84%
same,remaining activity at 1 µM,[23],96%
same,remaining activity at 1 µM,[24],54%
same,remaining activity at 1 µM,[25],100%
same,remaining activity at 1 µM,[26],40%
same,remaining activity at 1 µM,[27],53%
same,remaining activity at 1 µM,[28],66%
same,remaining activity at 1 µM,[29],99%
same,remaining activity at 1 µM,[30],100%
same,remaining activity at 1 µM,[31],88%
